Measurements published in patent US20240197738A1, “COMPOUND 7AI IN TREATING EWING SARCOMA BY INHIBITING OTUD7A” (The University of North Carolina at Chapel Hill, priority 2021, published 2024).
Where a SMILES comes first, the peptide text is derived from it. The star is where a group is joined. Cbz = O=C(OCc1ccccc1)*

Legend:
Type in all cases: cell-based, human
EWS-FLI1 = test: Immunoblot of EWS-FLI1 protein abundance in cells; conditions: for SPOP-mediated decrease of ectopically expressed EWS-FLI1: HEK293T cells, 10 μM MG132 or 1 μM MLN4924 overnight (FIG. 1G)
EWS-FLI1 mRNA = test: RT-PCR of EWS-FLI1 mRNA levels
Procedure: Cells were isolated by dissociation with 0.05% Trypsin, followed by media quenching. The cells were spun down at 300×rcf for 5 minutes. The media was aspirated, the pellet was suspended with 1×PBS, and then the cells were spun down again. The PBS was aspirated. RNA extraction was performed with an RNA extraction kit (BioBasic BS584). The final elution step was done with 50 μL of RNAse-free water. The […] with the NanoDrop OneC (Thermo Fisher Scientific). Three biological replicates were performed for RNA extraction. Quartile analysis was done to exclude outliers and significance was determined by one-way ANOVA tests.

EWS-FLI1 binding to SPOP = EWS-FLI1 binding to SPOP in cells; conditions: D4476 treatment
Procedure: (§1) Cells were lysed in EBC buffer (50 mM Tris pH 7.5, 120 mM NaCl, 0.5% NP-40) or Triton X-100 buffer (50 mM Tris pH 7.5, 150 mM NaCl, 1% Triton X-100) supplemented with protease inhibitors (Complete Mini, Roche) and phosphatase inhibitors (phosphatase inhibitor cocktail set I and II, Calbiochem). The protein concentrations of whole cell lysates were measured by NanoDrop OneC using the Bio-Rad protein assay reagent as described previously. Equal amounts of whole cell lysates were resolved by SDS-PAGE and immunoblotted with indicated antibodies. For immunoprecipitations analysis, unless specified, 1000 μg lysates were incubated with the indicated antibody (1-2 μg) for 3-4 hr at 4° C. followed by 1 hr incubation with 10 μL Protein A magnetic beads (New England Biolabs). Or 1000 μg lysates containing tagged molecules were incubated with agarose beads coupled antibodies for the specific tag for 3-4 hr at 4° C. For endogenous IPs, incubation of cell lysates with antibodies was extended to overnight. The recovered immuno-complexes were washed five times with NETN buffer (20 mM Tris, pH 8.0, 100 mM NaCl, 1 mM EDTA and 0.5% NP-40) before being resolved by SDS-PAGE and immunoblotted with indicated antibodies.

SPOP = test: Immunoblot of SPOP levels; conditions: D4476 treatment
Procedure: as §1

SMILES: CC(C)C[C@@H](C=O)NC(=O)[C@H](CC(C)C)NC(=O)[C@H](CC(C)C)NC(=O)OCc1ccccc1 [MG132] (Cbz-Leu-Leu-Leu-aldehyde)
- 3A-EWS-FLI1 mutant protein response (EWS-FLI1; 3A-EWS-FLI1 (S464A/S465A/S466A), MG132 treatment): resistance to MG132 treatment
- EWS-FLI1 protein abundance (EWS-FLI1; A673 and SK-N-MC cells, 10 μM MG132 for 4 hrs): significantly increased EWS-FLI1 protein abundance
- SPOP-mediated decrease of ectopically expressed EWS-FLI1 (EWS-FLI1): blocked
- EWS-FLI1 protein levels following OTUD7A depletion (EWS-FLI1; tet-induced OTUD7A depletion, MG132 treatment): largely preserved EWS-FLI1 protein levels

SMILES: Nc1cccc2c1CN(C1CCC(=O)NC1=O)C2=O (centres unmarked) [lenalidomide]
- EWS-FLI1 mRNA levels (EWS-FLI1 mRNA; lenalidomide treatment): without affecting EWS-FLI1 mRNA levels
- EWS-FLI1 protein abundance (EWS-FLI1; MHH-ES-1 cells, lenalidomide for 16 hrs (FIG. 2I)): increased EWS-FLI1 protein abundance

SMILES: Cc1sc2c(c1C)C(c1ccc(Cl)cc1)=N[C@@H](CC(=O)OC(C)(C)C)c1nnc(C)n1-2 [JQ1]
- EWS-FLI1 protein abundance (EWS-FLI1; MHH-ES-1 or A673 cells, JQ1 treatment): didn't change EWS-FLI1 protein abundance

SMILES: NC(=O)c1ccc(-c2nc(-c3ccc4c(c3)OCCO4)c(-c3ccccn3)[nH]2)cc1 [D4476]
- EWS-FLI1 binding to SPOP (EWS-FLI1 binding to SPOP): reduced EWS-FLI1 binding to SPOP
- SPOP levels (SPOP): unaffected
- EWS-FLI1 mRNA levels (EWS-FLI1 mRNA; D4476 treatment): without significantly affecting EWS-FLI1 mRNA levels
- EWS-FLI1 protein levels (EWS-FLI1; A673^3A KI cells, D4476 for 16 hrs (FIG. 2P)): not observed
- EWS-FLI1 protein levels (EWS-FLI1; A673 parental cells, D4476 for 16 hrs (FIG. 2O)): Increased EWS-FLI1 protein levels
- EWS-FLI1 protein abundance (EWS-FLI1; EWS502 cells (CUL3 E358Q), D4476 treatment): neither D4476 treatment, nor SPOP depletion increased EWS-FLI1 protein abundance
- EWS-FLI1 protein accumulation (EWS-FLI1; SK-N-MC, EWS894 and MHH-ES-1 cells, D4476 for 16 hrs (FIGS. 2B-2D)): resulted in the accumulation of EWS-FLI1 in multiple Ewing sarcoma cells
- effect on EWS-FLI1 levels in SPOP-depleted cells (EWS-FLI1; endogenous SPOP-depleted A673 cells, D4476 for 16 hrs (FIG. 2H)): attenuated

SMILES: NS(=O)(=O)OC[C@@H]1C[C@@H](n2ccc3c(N[C@H]4CCc5ccccc54)ncnc32)C[C@@H]1O [MLN4924]
- EWS-FLI1 protein stabilization (EWS-FLI1; A673 cells, 1 μM MLN4924 overnight): largely stabilized EWS-FLI1
- SPOP-mediated decrease of ectopically expressed EWS-FLI1 (EWS-FLI1): blocked
